# In ChEMBL document CHEMBL4800729 (2021):
# Key:
# [1] = molecular target: Ephrin type-A receptor 5 (Homo sapiens) (UniProt P54756); experiment: EphA5(h) Millipore kinase panel; conditions: Compound concentration 1.0 uM
# [2] = molecular target: Serine/threonine-protein kinase D3 (Homo sapiens) (UniProt O94806); experiment: PKD3(h) Millipore kinase panel; conditions: Compound concentration 1.0 uM
# [3] = molecular target: Serine/threonine-protein kinase SBK1 (Homo sapiens) (UniProt Q52WX2); experiment: SBK1(h) Millipore kinase panel; conditions: Compound concentration 1.0 uM
# [4] = molecular target: RAC-gamma serine/threonine-protein kinase (Homo sapiens) (UniProt Q9Y243); experiment: PKBgamma(h) Millipore kinase panel; conditions: Compound concentration 1.0 uM
# [5] = molecular target: Tyrosine-protein kinase Mer (Homo sapiens) (UniProt Q12866); experiment: Mer(h) Millipore kinase panel; conditions: Compound concentration 1.0 uM
# [6] = molecular target: Dual specificity tyrosine-phosphorylation-regulated kinase 2 (Homo sapiens) (UniProt Q92630); experiment: DYRK2(h) Millipore kinase panel; conditions: Compound concentration 1.0 uM
# [7] = molecular target: LIM domain kinase 1 (Homo sapiens) (UniProt P53667); experiment: LIMK1(h) Millipore kinase panel; conditions: Compound concentration 1.0 uM
# [8] = molecular target: Myotonin-protein kinase (Homo sapiens) (UniProt Q09013); experiment: DMPK(h) Millipore kinase panel; conditions: Compound concentration 1.0 uM
# [9] = molecular target: Protein kinase C beta type (Homo sapiens) (UniProt P05771); experiment: PKCbetaI(h) Millipore kinase panel; conditions: Compound concentration 1.0 uM
# [10] = molecular target: Tyrosine-protein kinase ZAP-70 (Homo sapiens) (UniProt P43403); experiment: ZAP_70(h) Millipore kinase panel; conditions: Compound concentration 1.0 uM
# [11] = molecular target: cAMP-dependent protein kinase catalytic subunit alpha (Homo sapiens) (UniProt P17612); experiment: PKA(h) Millipore kinase panel; conditions: Compound concentration 1.0 uM
# [12] = molecular target: Serine/threonine-protein kinase 32C (Homo sapiens) (UniProt Q86UX6); experiment: STK32C(h) Millipore kinase panel; conditions: Compound concentration 1.0 uM
# [13] = molecular target: Tyrosine-protein kinase Lck (Homo sapiens) (UniProt P06239); experiment: Lck(h) Millipore kinase panel; conditions: Compound concentration 1.0 uM
# [14] = molecular target: MAP kinase-activated protein kinase 2 (Homo sapiens) (UniProt P49137); experiment: MAPKAP-K2(h) Millipore kinase panel; conditions: Compound concentration 1.0 uM
# [15] = molecular target: Tyrosine-protein kinase CSK (Homo sapiens) (UniProt P41240); experiment: CSK(h) Millipore kinase panel; conditions: Compound concentration 1.0 uM
# [16] = molecular target: Tau-tubulin kinase 1 (Homo sapiens) (UniProt Q5TCY1); experiment: TTBK1(h) Millipore kinase panel; conditions: Compound concentration 1.0 uM
# [17] = molecular target: cAMP-dependent protein kinase catalytic subunit PRKX (Homo sapiens) (UniProt P51817); experiment: PrKX(h) Millipore kinase panel; conditions: Compound concentration 1.0 uM
# [18] = molecular target: 5-hydroxytryptamine receptor 2B (Homo sapiens, UniProt P41595); experiment: GPCRScan assay: inhibition of 5-HT2B; design: radioligand conc. used [nm] 1.0 – 2.0, parental cells stable HEK
# [19] = molecular target: Serine/threonine-protein kinase BRSK2 (Homo sapiens) (UniProt Q8IWQ3); experiment: BrSK2(h) Millipore kinase panel; conditions: Compound concentration 1.0 uM
# [20] = molecular target: Beta-1 adrenergic receptor (Homo sapiens) (UniProt P08588); conditions: Compound concentration 10.0 uM
# [21] = molecular target: Serine/threonine-protein kinase SIK2 (Homo sapiens) (UniProt Q9H0K1); experiment: SIK2(h) Millipore kinase panel; conditions: Compound concentration 1.0 uM
# [22] = molecular target: AP2-associated protein kinase 1 (Homo sapiens) (UniProt Q2M2I8); experiment: AAK1(h) Millipore kinase panel; conditions: Compound concentration 1.0 uM
# [23] = molecular target: Ribosomal protein S6 kinase alpha-5 (Homo sapiens) (UniProt O75582); experiment: MSK1(h) Millipore kinase panel; conditions: Compound concentration 1.0 uM
# [24] = molecular target: Serine/threonine-protein kinase N2 (Homo sapiens) (UniProt Q16513); experiment: PRK2(h) Millipore kinase panel; conditions: Compound concentration 1.0 uM
# [25] = molecular target: Death-associated protein kinase 3 (Homo sapiens) (UniProt O43293); experiment: ZIPK(h) Millipore kinase panel; conditions: Compound concentration 1.0 uM
# [26] = molecular target: Calcium/calmodulin-dependent protein kinase type 1B (Homo sapiens) (UniProt Q6P2M8); experiment: CaMKIbeta(h) Millipore kinase panel; conditions: Compound concentration 1.0 uM
# [27] = molecular target: Tyrosine-protein kinase JAK1 (Homo sapiens) (UniProt P23458); experiment: JAK1(h) Millipore kinase panel; conditions: Compound concentration 1.0 uM
# Sus scrofa = species: Sus scrofa; experiment: Inhibition of ATPase, Na+/K+, Heart at compound concentration of 10.0 uM in the Eurofins-Panlabs enzyme assay (Eurofins_assay_107710); design: substrate with concentration; conditions: Compound concentration 10.0 uM
# [28] = molecular target: Serine/threonine-protein kinase Nek3 (Homo sapiens) (UniProt P51956); experiment: NEK3(h) Millipore kinase panel; conditions: Compound concentration 1.0 uM
# [29] = molecular target: Proto-oncogene tyrosine-protein kinase Src (Homo sapiens) (UniProt P12931); experiment: cSRC(h) Millipore kinase panel; conditions: Compound concentration 1.0 uM
# [30] = molecular target: Serine/threonine-protein kinase/endoribonuclease IRE1 (Homo sapiens) (UniProt O75460); experiment: IRE1(h) Millipore kinase panel; conditions: Compound concentration 1.0 uM
# [31] = molecular target: Ribosomal protein S6 kinase alpha-6 (Homo sapiens) (UniProt Q9UK32); experiment: Rsk4(h) Millipore kinase panel; conditions: Compound concentration 1.0 uM
# [32] = molecular target: MAP kinase-activated protein kinase 3 (Homo sapiens) (UniProt Q16644); experiment: MAPKAP-K3(h) Millipore kinase panel; conditions: Compound concentration 1.0 uM
# [33] = molecular target: STE20-like serine/threonine-protein kinase (Homo sapiens) (UniProt Q9H2G2); experiment: SLK(h) Millipore kinase panel; conditions: Compound concentration 1.0 uM
# [34] = molecular target: Serine/threonine-protein kinase 32A (Homo sapiens) (UniProt Q8WU08); experiment: STK32A(h) Millipore kinase panel; conditions: Compound concentration 1.0 uM
# [35] = molecular target: Calcium/calmodulin-dependent protein kinase type II subunit beta (Homo sapiens) (UniProt Q13554); experiment: CaMKIIbeta(h) Millipore kinase panel; conditions: Compound concentration 1.0 uM
# [36] = molecular target: Serine/threonine-protein kinase PLK4 (Homo sapiens) (UniProt O00444); experiment: Plk4(h) Millipore kinase panel; conditions: Compound concentration 1.0 uM
# [37] = molecular target: Inhibitor of nuclear factor kappa-B kinase subunit epsilon (Homo sapiens) (UniProt Q14164); experiment: IKKepsilon(h Millipore kinase panel; conditions: Compound concentration 1.0 uM
# [38] = molecular target: Homeodomain-interacting protein kinase 4 (Homo sapiens) (UniProt Q8NE63); experiment: HIPK4(h) Millipore kinase panel; conditions: Compound concentration 1.0 uM
# [39] = molecular target: MAP kinase-activated protein kinase 5 (Homo sapiens) (UniProt Q8IW41); experiment: PRAK(h) Millipore kinase panel; conditions: Compound concentration 1.0 uM
# [40] = molecular target: 5-hydroxytryptamine receptor 1D (Homo sapiens) (UniProt P28221); conditions: Compound concentration 10.0 uM
# [41] = molecular target: CDK18/Cyclin Y (Homo sapiens) (UniProt Q07002+Q8ND76); experiment: CDK18/cyclinY(h) Millipore kinase panel; format: protein-complex assay; conditions: Compound concentration 1.0 uM
# [42] = molecular target: Serine/threonine-protein kinase BRSK1 (Homo sapiens) (UniProt Q8TDC3); experiment: BrSK1(h) Millipore kinase panel; conditions: Compound concentration 1.0 uM
# [43] = molecular target: Mast/stem cell growth factor receptor Kit (Homo sapiens) (UniProt P10721); experiment: cKit(h) Millipore kinase panel; conditions: Compound concentration 1.0 uM
# [44] = molecular target: SRSF protein kinase 3 (Homo sapiens) (UniProt Q9UPE1); experiment: MSSK1(h) Millipore kinase panel; conditions: Compound concentration 1.0 uM
# [45] = molecular target: PI3-kinase p110-delta/p85-alpha (Homo sapiens) (UniProt P27986+O00329); experiment: PI3 Kinase (p110d/p85a)(h) Millipore kinase panel; format: protein-complex assay; conditions: Compound concentration 1.0 uM
# [46] = molecular target: Protein-tyrosine kinase 2-beta (Homo sapiens) (UniProt Q14289); experiment: Pyk2(h) Millipore kinase panel; conditions: Compound concentration 1.0 uM
# [47] = molecular target: Serine/threonine-protein kinase NIM1 (Homo sapiens) (UniProt Q8IY84); experiment: NIM1(h) Millipore kinase panel; conditions: Compound concentration 1.0 uM
# [48] = molecular target: 5-hydroxytryptamine receptor 3A (Homo sapiens) (UniProt P46098); conditions: Compound concentration 10.0 uM
# [49] = molecular target: Protein kinase C iota type (Homo sapiens) (UniProt P41743); experiment: PKCiota(h) Millipore kinase panel; conditions: Compound concentration 1.0 uM
# Chain of Protein kinase C iota type (Homo sapiens) (P41743 whole entry): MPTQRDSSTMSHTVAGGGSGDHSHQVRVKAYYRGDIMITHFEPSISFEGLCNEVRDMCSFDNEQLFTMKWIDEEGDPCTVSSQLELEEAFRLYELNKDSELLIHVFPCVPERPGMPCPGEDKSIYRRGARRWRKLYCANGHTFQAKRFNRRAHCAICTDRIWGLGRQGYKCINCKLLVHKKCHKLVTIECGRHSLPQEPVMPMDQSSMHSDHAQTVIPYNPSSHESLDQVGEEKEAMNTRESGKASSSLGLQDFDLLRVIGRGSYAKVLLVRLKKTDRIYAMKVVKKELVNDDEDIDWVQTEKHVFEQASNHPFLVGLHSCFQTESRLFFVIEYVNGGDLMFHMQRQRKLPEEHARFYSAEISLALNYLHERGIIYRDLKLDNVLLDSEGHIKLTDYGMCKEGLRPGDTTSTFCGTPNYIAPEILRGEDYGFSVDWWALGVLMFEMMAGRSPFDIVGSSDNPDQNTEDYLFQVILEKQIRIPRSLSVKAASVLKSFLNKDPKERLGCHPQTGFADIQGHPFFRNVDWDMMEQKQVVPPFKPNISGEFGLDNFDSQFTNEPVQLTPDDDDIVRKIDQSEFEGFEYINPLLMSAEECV
# Chain of Ribosomal protein S6 kinase alpha-6 (Homo sapiens) (Q9UK32 whole entry): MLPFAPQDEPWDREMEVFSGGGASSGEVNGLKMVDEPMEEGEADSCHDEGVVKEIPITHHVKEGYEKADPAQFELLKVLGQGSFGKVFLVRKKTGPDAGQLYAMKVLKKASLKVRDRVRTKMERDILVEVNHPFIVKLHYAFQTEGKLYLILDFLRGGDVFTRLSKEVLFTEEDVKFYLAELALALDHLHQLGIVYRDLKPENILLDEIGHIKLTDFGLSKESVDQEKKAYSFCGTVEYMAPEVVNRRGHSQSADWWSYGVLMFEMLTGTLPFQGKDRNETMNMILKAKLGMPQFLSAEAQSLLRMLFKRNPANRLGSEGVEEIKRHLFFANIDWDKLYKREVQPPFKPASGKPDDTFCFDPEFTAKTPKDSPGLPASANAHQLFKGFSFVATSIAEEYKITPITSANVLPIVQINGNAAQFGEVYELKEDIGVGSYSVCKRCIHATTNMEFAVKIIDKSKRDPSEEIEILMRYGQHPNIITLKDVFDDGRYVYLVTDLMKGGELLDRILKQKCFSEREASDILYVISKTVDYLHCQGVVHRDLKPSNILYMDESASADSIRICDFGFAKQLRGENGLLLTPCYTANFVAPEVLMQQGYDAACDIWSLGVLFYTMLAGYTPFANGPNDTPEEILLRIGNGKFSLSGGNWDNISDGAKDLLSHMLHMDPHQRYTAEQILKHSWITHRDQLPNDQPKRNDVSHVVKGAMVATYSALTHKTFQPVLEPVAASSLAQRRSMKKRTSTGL
# Chain of STE20-like serine/threonine-protein kinase (Homo sapiens) (Q9H2G2 whole entry, looked up): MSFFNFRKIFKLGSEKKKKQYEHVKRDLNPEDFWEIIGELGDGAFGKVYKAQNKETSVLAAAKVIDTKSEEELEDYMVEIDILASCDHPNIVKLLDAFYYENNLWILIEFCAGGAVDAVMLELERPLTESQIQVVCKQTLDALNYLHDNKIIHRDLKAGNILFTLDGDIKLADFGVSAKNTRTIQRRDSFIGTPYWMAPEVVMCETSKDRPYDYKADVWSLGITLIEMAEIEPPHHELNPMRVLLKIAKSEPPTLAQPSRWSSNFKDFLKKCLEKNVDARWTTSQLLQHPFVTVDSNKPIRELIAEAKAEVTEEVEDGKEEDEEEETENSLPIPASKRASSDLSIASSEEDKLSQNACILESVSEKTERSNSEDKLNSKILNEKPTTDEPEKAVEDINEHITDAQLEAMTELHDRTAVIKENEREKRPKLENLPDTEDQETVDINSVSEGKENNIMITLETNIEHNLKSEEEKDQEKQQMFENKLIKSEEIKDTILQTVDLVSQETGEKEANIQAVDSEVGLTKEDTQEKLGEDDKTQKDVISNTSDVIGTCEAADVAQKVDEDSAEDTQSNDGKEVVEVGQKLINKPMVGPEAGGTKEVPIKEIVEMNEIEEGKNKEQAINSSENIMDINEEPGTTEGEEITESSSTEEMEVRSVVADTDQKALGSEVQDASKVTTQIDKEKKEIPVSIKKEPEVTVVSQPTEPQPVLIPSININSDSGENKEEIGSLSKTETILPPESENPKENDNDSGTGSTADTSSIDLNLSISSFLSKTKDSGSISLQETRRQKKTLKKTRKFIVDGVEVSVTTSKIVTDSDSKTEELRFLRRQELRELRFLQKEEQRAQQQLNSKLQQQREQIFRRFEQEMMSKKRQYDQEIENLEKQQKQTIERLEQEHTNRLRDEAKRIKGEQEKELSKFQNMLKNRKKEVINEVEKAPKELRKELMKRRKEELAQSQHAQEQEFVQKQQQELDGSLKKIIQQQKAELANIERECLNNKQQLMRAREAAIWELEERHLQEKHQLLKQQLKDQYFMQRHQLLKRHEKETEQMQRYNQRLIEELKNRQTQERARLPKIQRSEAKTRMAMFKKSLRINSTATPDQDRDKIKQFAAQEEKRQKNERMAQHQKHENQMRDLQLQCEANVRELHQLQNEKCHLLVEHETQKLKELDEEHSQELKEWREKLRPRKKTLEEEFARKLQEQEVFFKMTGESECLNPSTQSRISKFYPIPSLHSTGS
# Chain of Serine/threonine-protein kinase D3 (Homo sapiens) (O94806 whole entry): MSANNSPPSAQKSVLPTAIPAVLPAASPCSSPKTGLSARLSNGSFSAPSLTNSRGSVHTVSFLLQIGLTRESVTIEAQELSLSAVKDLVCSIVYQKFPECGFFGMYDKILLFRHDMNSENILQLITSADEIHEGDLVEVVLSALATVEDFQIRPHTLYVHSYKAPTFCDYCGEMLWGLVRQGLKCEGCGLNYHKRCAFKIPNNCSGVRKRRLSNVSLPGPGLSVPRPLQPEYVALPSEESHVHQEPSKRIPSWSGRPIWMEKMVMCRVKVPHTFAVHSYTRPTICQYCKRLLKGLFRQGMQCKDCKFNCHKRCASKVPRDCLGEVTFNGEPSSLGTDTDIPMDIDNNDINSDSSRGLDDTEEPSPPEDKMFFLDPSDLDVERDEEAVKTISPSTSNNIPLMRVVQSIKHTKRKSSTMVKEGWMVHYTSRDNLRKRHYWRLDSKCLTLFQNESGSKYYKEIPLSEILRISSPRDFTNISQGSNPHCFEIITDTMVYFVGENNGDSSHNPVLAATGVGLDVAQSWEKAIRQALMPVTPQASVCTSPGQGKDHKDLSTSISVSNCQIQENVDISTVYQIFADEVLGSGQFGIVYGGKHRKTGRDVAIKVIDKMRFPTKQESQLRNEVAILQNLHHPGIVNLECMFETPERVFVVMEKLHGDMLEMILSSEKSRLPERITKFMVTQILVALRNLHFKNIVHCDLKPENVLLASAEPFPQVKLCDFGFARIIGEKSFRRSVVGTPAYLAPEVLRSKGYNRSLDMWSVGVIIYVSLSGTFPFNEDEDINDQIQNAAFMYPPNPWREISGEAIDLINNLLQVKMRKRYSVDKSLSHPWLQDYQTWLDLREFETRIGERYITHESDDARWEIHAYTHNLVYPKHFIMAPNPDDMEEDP
# Chain of Serine/threonine-protein kinase/endoribonuclease IRE1 (Homo sapiens) (O75460 19-977 limits assumed): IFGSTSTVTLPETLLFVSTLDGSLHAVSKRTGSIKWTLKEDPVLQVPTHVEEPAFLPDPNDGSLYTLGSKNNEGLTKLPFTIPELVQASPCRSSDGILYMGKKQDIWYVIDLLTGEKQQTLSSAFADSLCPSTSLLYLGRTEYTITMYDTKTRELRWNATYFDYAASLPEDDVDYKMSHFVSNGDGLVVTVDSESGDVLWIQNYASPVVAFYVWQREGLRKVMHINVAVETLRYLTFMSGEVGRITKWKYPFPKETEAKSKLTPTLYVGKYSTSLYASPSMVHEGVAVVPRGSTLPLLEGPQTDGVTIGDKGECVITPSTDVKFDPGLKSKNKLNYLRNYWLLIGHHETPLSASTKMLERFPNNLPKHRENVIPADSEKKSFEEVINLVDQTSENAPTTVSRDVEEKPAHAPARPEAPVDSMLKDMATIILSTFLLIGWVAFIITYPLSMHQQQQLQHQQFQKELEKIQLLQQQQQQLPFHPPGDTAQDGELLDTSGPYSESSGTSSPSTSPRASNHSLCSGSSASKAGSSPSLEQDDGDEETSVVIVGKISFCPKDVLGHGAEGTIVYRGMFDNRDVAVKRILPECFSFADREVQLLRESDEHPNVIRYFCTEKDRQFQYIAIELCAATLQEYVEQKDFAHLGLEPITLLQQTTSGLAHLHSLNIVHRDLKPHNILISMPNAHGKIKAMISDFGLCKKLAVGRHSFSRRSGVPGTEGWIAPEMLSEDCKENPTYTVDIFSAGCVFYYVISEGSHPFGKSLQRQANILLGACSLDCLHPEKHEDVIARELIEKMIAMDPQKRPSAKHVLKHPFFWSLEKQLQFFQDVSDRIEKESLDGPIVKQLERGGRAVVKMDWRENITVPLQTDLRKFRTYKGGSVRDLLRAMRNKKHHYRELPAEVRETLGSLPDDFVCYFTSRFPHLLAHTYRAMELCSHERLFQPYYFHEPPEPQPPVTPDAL
# Chain of Beta-1 adrenergic receptor (Homo sapiens) (P08588 whole entry, looked up): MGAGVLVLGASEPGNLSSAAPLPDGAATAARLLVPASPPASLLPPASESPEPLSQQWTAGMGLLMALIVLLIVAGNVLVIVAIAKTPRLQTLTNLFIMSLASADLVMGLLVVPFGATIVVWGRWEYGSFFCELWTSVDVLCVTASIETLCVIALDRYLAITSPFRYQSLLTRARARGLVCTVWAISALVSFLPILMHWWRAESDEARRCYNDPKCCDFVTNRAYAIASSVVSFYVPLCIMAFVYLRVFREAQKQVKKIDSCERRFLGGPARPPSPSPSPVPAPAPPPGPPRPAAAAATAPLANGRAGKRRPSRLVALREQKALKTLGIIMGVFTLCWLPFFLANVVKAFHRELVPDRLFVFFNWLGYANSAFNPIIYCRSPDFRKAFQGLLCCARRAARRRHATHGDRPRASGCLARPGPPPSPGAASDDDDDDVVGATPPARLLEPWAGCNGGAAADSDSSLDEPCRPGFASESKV
smiles,measurement,setting,value
CC[C@@H](Nc1c(C#N)c(-c2ccc(-c3cccc(C)c3F)cc2)nc2cnccc12)C(=O)O [BAY-091],inhibition,[1],15.8%
same,inhibition,[2],12.6%
same,inhibition,[3],4.02%
same,inhibition,[4],9.92%
same,inhibition,[5],10.2%
same,inhibition,[6],19.1%
same,inhibition,[7],8.64%
same,inhibition,[8],15.1%
same,inhibition,[9],16.5%
same,inhibition,[10],2.99%
same,inhibition,[11],11%
same,inhibition,[12],5.49%
same,inhibition,[13],-0.68%
same,inhibition,[14],5.05%
same,inhibition,[15],6.94%
same,inhibition,[16],-2.05%
same,inhibition,[17],2.66%
same,Ki,[18],1500 nM
same,inhibition,[19],3.83%
same,inhibition,[20],4.09%
same,inhibition,[21],3.68%
same,inhibition,[22],7.44%
same,inhibition,[23],1.48%
same,inhibition,[24],5.02%
same,inhibition,[25],0.91%
same,inhibition,[26],-7.99%
same,inhibition,[27],-0.44%
same,inhibition,Sus scrofa,20%
same,inhibition,[28],8.41%
same,inhibition,[29],7.51%
same,inhibition,[30],2.72%
same,inhibition,[31],-6.19%
same,inhibition,[32],5.32%
same,inhibition,[33],19.7%
same,inhibition,[34],16%
same,inhibition,[35],8.65%
same,inhibition,[36],-8.83%
same,inhibition,[37],10.2%
same,inhibition,[38],15.7%
same,inhibition,[39],23.6%
same,inhibition,[40],21.2%
same,inhibition,[41],10.6%
same,inhibition,[42],-4.39%
same,inhibition,[43],22.3%
same,inhibition,[44],4.51%
same,inhibition,[45],30.9%
same,inhibition,[46],10.7%
same,inhibition,[47],12%
same,inhibition,[48],7.39%
same,inhibition,[49],5.85%
